Data as given in ChEMBL document CHEMBL1201862, “PubChem BioAssay data set” (2004).
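Five compound concentrations were applied to cells in 96-well plates for 48 hours; endpoints were derived by simple linear interpolation of the resulting dose-response curve. GI50 marks 50% less growth.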 Calls of active or inactive are those of the source. No stated cut-off is given here; in the data, active = GI50 up to about 1.1 µM and inactive = higher.

Experiments:
Experiment in all cases: NCI tumour cell line growth inhibition, 48 h
UO-31 = test system: UO-31
A549 = test system: A549
EKVX = test system: EKVX
SR = test system: SR
NCI-H23 = test system: NCI-H23
OVCAR-4 = test system: OVCAR-4
PC-3 = test system: PC-3
SK-MEL-2 = test system: SK-MEL-2
BT-549 = test system: BT-549
SF-268 = test system: SF-268
MDA-MB-231 = test system: MDA-MB-231
T47D = test system: T47D
OVCAR-8 = test system: OVCAR-8
NCI-H460 = test system: NCI-H460
NCI-H522 = test system: NCI-H522
Malme-3M = test system: Malme-3M
HCT-116 = test system: HCT-116
SN12C = test system: SN12C
SK-MEL-5 = test system: SK-MEL-5
HOP-92 = test system: HOP-92

Measured: GI50

Nc1ccc(-c2nc3ccccc3s2)cc1CO
inactive: UO-31 10.5 µM | A549 > 58.7 µM | EKVX 7.46 µM | SR > 84.3 µM | NCI-H23 60.5 µM | OVCAR-4 > 39.2 µM | PC-3 66.8 µM | SK-MEL-2 > 85.7 µM | BT-549 47.3 µM | SF-268 > 73.5 µM | MDA-MB-231 > 70 µM | T47D 33.2 µM | OVCAR-8 > 77.6 µM | NCI-H460 68.4 µM | NCI-H522 52.8 µM | Malme-3M > 100 µM | HCT-116 74.6 µM | SN12C 45.8 µM | SK-MEL-5 49.4 µM | HOP-92 > 54.8 µM

CCOC(=S)SCC(=O)O
inactive: UO-31 > 100 µM | A549 > 100 µM | EKVX > 100 µM | SR > 100 µM | NCI-H23 > 100 µM | OVCAR-4 > 100 µM | PC-3 > 100 µM | SK-MEL-2 > 100 µM | BT-549 > 100 µM | SF-268 > 100 µM | MDA-MB-231 > 100 µM | T47D > 100 µM | OVCAR-8 > 100 µM | NCI-H460 > 100 µM | NCI-H522 > 100 µM | Malme-3M > 100 µM | HCT-116 > 100 µM | SN12C > 100 µM | SK-MEL-5 > 100 µM | HOP-92 > 100 µM

COCOc1c(C(OCOC)c2cnc(Sc3ccccc3)n2C)ccc(OC)c1OC (stereo not given)
inactive: UO-31 73.6 µM | A549 > 100 µM | EKVX > 100 µM | SR 52.5 µM | NCI-H23 > 100 µM | OVCAR-4 > 100 µM | PC-3 > 100 µM | SK-MEL-2 > 100 µM | BT-549 > 100 µM | SF-268 > 100 µM | MDA-MB-231 > 100 µM | T47D 82.2 µM | OVCAR-8 > 100 µM | NCI-H460 > 100 µM | NCI-H522 90.8 µM | Malme-3M > 100 µM | HCT-116 > 100 µM | SN12C > 100 µM | SK-MEL-5 63.8 µM | HOP-92 > 100 µM

Cn1c(=O)c2c([nH]/c(=N/N=C/c3ccccc3C(=O)O)n2C)n(C)c1=O
inactive: UO-31 > 100 µM | A549 > 100 µM | EKVX > 100 µM | SR > 100 µM | NCI-H23 > 100 µM | OVCAR-4 > 100 µM | PC-3 > 100 µM | SK-MEL-2 > 100 µM | BT-549 > 100 µM | SF-268 > 100 µM | MDA-MB-231 > 100 µM | T47D > 100 µM | OVCAR-8 > 100 µM | NCI-H460 > 100 µM | NCI-H522 > 100 µM | Malme-3M > 100 µM | HCT-116 > 100 µM | SN12C > 100 µM | SK-MEL-5 > 100 µM | HOP-92 > 100 µM

FC(F)(F)c1cccnc1Sc1nc2ccccc2s1
inactive: UO-31 32.1 µM | A549 > 100 µM | EKVX 63 µM | SR 30.9 µM | NCI-H23 80.4 µM | OVCAR-4 > 100 µM | PC-3 > 100 µM | SK-MEL-2 20.7 µM | BT-549 > 100 µM | SF-268 > 100 µM | MDA-MB-231 63.8 µM | T47D > 100 µM | OVCAR-8 > 100 µM | NCI-H460 > 100 µM | NCI-H522 80 µM | Malme-3M > 100 µM | HCT-116 > 100 µM | SN12C > 100 µM | SK-MEL-5 > 100 µM | HOP-92 16.3 µM

COC(=O)C1CCC(=O)N1C(c1ccccc1)c1ccc(OC)c(OC)c1 (stereo not given)
inactive: UO-31 > 100 µM | A549 > 100 µM | EKVX > 100 µM | SR > 100 µM | NCI-H23 > 100 µM | OVCAR-4 > 100 µM | PC-3 > 100 µM | SK-MEL-2 > 100 µM | BT-549 > 100 µM | SF-268 > 100 µM | MDA-MB-231 > 100 µM | T47D > 100 µM | OVCAR-8 > 100 µM | NCI-H460 > 100 µM | NCI-H522 > 100 µM | Malme-3M > 100 µM | HCT-116 > 100 µM | SN12C > 100 µM | SK-MEL-5 > 100 µM | HOP-92 > 100 µM

O=C1CCCC2=C(N1)C(=O)C=CC2=O
inactive: UO-31 43.7 µM | A549 > 63.1 µM | EKVX 34.4 µM | SR 24.4 µM | NCI-H23 39.6 µM | OVCAR-4 45.7 µM | PC-3 16.1 µM | SK-MEL-2 44 µM | BT-549 16.7 µM | SF-268 46.2 µM | MDA-MB-231 16.7 µM | T47D 22 µM | OVCAR-8 47.4 µM | NCI-H460 45.3 µM | NCI-H522 13.6 µM | Malme-3M 39.4 µM | HCT-116 33.7 µM | SN12C 29.2 µM | SK-MEL-5 42.1 µM | HOP-92 22.2 µM

CCOC(=O)Cc1ccc(Nc2nc3cc(F)c(F)cc3nc2C(=O)OCC)cc1
inactive: UO-31 1.52 µM | A549 74 µM | EKVX 22.8 µM | SR 26.5 µM | NCI-H23 26 µM | OVCAR-4 57 µM | PC-3 49.5 µM | SK-MEL-2 22.9 µM | BT-549 55.6 µM | SF-268 64.9 µM | MDA-MB-231 2.34 µM | T47D 35.1 µM | OVCAR-8 29.2 µM | NCI-H460 69.5 µM | NCI-H522 9.18 µM | Malme-3M > 100 µM | HCT-116 71.9 µM | SN12C 74.5 µM | SK-MEL-5 34.5 µM | HOP-92 13.4 µM

CC1(CCCO)CCCCCC(C)(CCCO)C1=O (stereo not given)
inactive: UO-31 > 100 µM | A549 > 100 µM | EKVX > 100 µM | SR > 100 µM | NCI-H23 > 100 µM | OVCAR-4 > 100 µM | PC-3 > 100 µM | SK-MEL-2 > 100 µM | BT-549 > 100 µM | SF-268 > 100 µM | MDA-MB-231 > 100 µM | T47D > 100 µM | OVCAR-8 > 100 µM | NCI-H460 > 100 µM | NCI-H522 > 100 µM | Malme-3M > 100 µM | HCT-116 > 100 µM | SN12C > 100 µM | SK-MEL-5 > 100 µM | HOP-92 > 100 µM

COc1ccc(/[N+]([O-])=C/c2ccccc2OC(=S)S)cc1
inactive: UO-31 24.6 µM | A549 > 100 µM | EKVX 40.2 µM | SR 28.4 µM | NCI-H23 27.7 µM | OVCAR-4 28.4 µM | PC-3 39.3 µM | SK-MEL-2 28.2 µM | BT-549 23.2 µM | SF-268 34.8 µM | MDA-MB-231 56.2 µM | T47D 41.8 µM | OVCAR-8 18.7 µM | NCI-H460 45.1 µM | NCI-H522 25.1 µM | Malme-3M > 100 µM | HCT-116 25.5 µM | SN12C 24.5 µM | SK-MEL-5 30.5 µM | HOP-92 12.4 µM

C=CCSSCC=C
inactive: UO-31 32.9 µM | A549 > 83.8 µM | EKVX > 100 µM | SR 4.09 µM | NCI-H23 > 58.3 µM | OVCAR-4 > 76.6 µM | PC-3 39.8 µM | SK-MEL-2 > 71.1 µM | BT-549 42.3 µM | SF-268 47.9 µM | MDA-MB-231 16.8 µM | T47D > 100 µM | OVCAR-8 27.6 µM | NCI-H460 32.4 µM | NCI-H522 15.9 µM | Malme-3M 40.9 µM | HCT-116 13.6 µM | SN12C 36.7 µM | SK-MEL-5 35.4 µM | HOP-92 28.5 µM
